Eight compounds from patent US10023602B2, “Hamamelitannin analogues and uses thereof” (Universiteit Gent, priority 2014, dated 2018) can be followed below.

In assay [1] the test system is methicillin resistant S. aureus Mu50 strain (S. aureus ATCC700699) biofilm. The assay can be described thus: Biofilm susceptibility to vancomycin, pre-treatment regimen (biofilm formed in presence of compound, then vancomycin). The format is cell-based. The settings on record: for Pretreat (100 μM): percentage Colony Forming Units (CFU's) per biofilm: compound 100 μM during biofilm formation; for EC50: concentration needed to get 50% killing compared to antibiotic alone (VAN 20 μg/ml) and complete killing, read-out: Pretreat. (EC50). As for the experimental part:
(§1) The compounds were evaluated for their effect on biofilm susceptibility both under pre-treatment and combination treatment regimens. In the pre-treatment regimen, a methicillin resistant S. aureus Mu50 strain (S. aureus ATCC700699) was allowed to form biofilms in the presence of the compounds after which the biofilm was treated with vancomycin (20 μg/ml). In the combination treatment regimen, S. aureus Mu50 was allowed to form a mature biofilm after which it was treated with a combination of a compound and vancomycin. In brief, 100 μl of a standardized inoculum (10^8 CFU/ml) was placed in the wells of a round-bottom 96-well microtiter plate. The cells were allowed to adhere to the plate in the absence (combined treatment) or presence (pre-treatment) of the compounds (0.1-250 μM) for 4 h at 37° C. After this adhesion step, non-adhered cells were removed, the wells were rinsed and fresh medium with or without the compounds was added. The plates were incubated for an additional 20 h at 37° C. After this, the medium was removed, biofilms were rinsed with physiological saline and vancomycin (20 μg/ml) was added alone (pre-treatment) or with the compounds (combined treatment, 0.1-250 μM). Plates were placed at 37° C. for 24 h after which medium was removed, wells were rinsed and the surviving cells in each condition were collected. The number of surviving cells under each condition was compared to vancomycin treatment alone and was assessed by conventional plating. The REF compound (hamamelitannin) was also observed for its effect on biofilm susceptibility towards other antibiotics (incl. vancomycin, cefoxitin, tobramycin, cefazolin, cefalonium, daptomycin, linezolide and cephalexin). Biofilms were formed as described above and were treated with the antibiotics alone or in combination with the REF compound (250 μM). The number of surviving cells under each condition was compared to the untreated control biofilm and was assessed by conventional plating.

Assay [2] shares this test system. The experiment in a line: Biofilm susceptibility to vancomycin, combination treatment regimen (mature biofilm treated with compound plus vancomycin). The settings on record: for Combin. (100 μM): percentage Colony Forming Units (CFU's) per biofilm: compound 100 μM together with VAN 20 μg/ml on mature biofilm; for EC50: concentration needed to get 50% killing compared to antibiotic alone (VAN 20 μg/ml) and complete killing, read-out: Combin. (EC50). It is filed as cell-based. As for the experimental part: as §1

Where [3] appears, read: then VAN 20 μg/ml, compared to the untreated (negative) control.
Where [4] appears, read: compared to the untreated (negative) control.

On to `O=C(NC[C@H]1OC[C@@](O)(CNC(=O)c2ccccc2)[C@@H]1O)c1ccc(Cl)cc1` [compound 153, N-(((2R,3R,4S)-4-(benzamidomethyl)-3,4-dihydroxytetrahydrofuran-2-yl)methyl)-4-chlorobenzamide], for which, in assay [1] (setting [3]), the “Pretreat (100 μM): percentage Colony Forming Units (CFU's) per biofilm” value was 9.185 percentage. Moreover, the results for the EC50 in assay [1] and in assay [2] were 18 µM and 21.4 µM, respectively. In addition, in assay [2] (setting [4]), the “Combin. (100 μM): percentage Colony Forming Units (CFU's) per biofilm” value is recorded as 8.577 percentage.
Consider `O=C(NC[C@H]1OC[C@@](O)(CNC(=O)c2ccccc2Cl)[C@@H]1O)c1ccc(-c2ccccc2)cc1` [compound 250, N-(((2R,3R,4S)-4-((2-chlorobenzamido)methyl)-3,4-dihydroxytetrahydrofuran-2-yl)methyl)-[1,1′-biphenyl]-4-carboxamide], for which the “Pretreat (100 μM): percentage Colony Forming Units (CFU's) per biofilm” value in assay [1] (setting [3]) came to 18.82 percentage. Moreover, the concentration giving a half-maximal response (EC50) – broadly, the concentration that produces a half-maximal response – came to 23 µM in assay [1] and 61.3 µM in assay [2]. Besides, the “Combin. (100 μM): percentage Colony Forming Units (CFU's) per biofilm” value in assay [2] (setting [4]) worked out at 29.48 percentage.
In the case of `O=C(NC[C@]1(O)CO[C@H](CNC(=O)c2cnc(Cl)cc2Cl)[C@H]1O)c1ccccc1` [compound 198, N-(((2R,3R,4S)-4-(benzamidomethyl)-3,4-dihydroxytetrahydrofuran-2-yl)methyl)-4,6-dichloronicotinamide], the “Pretreat (100 μM): percentage Colony Forming Units (CFU's) per biofilm” value in assay [1] (setting [3]) was found to be 19.18 percentage. Further, the EC50 was 10.8 µM in assay [1] and 7.52 µM in assay [2]. The “Combin. (100 μM): percentage Colony Forming Units (CFU's) per biofilm” value in assay [2] (setting [4]) worked out at 11.25 percentage.
`O=C(NC[C@H]1OC(O)[C@@](O)(CNC(=O)c2cc(O)cc(O)c2)[C@@H]1O)c1cc(O)cc(O)c1` (stereo partly drawn) [compound 18, N,N′-(((2R,3R,4R)-3,4,5-trihydroxytetrahydrofuran-2,4-diyl)bis(methylene))bis(3,5-dihydroxybenzamide)]: in assay [1] (setting [3]), the “Pretreat (100 μM): percentage Colony Forming Units (CFU's) per biofilm” value worked out at 37.58 percentage. The results for the EC50 in assay [1] and in assay [2] were 116 µM and 231 µM, respectively. Moreover, in assay [2] (setting [4]), the “Combin. (100 μM): percentage Colony Forming Units (CFU's) per biofilm” value was 79.55 percentage.
As for `O=C(NC[C@H]1OC[C@@](O)(CNC(=O)c2ccccc2)[C@@H]1O)c1cccc(F)c1` [compound 161, N-(((2R,3R,4S)-4-(benzamidomethyl)-3,4-dihydroxytetrahydrofuran-2-yl)methyl)-3-fluorobenzamide], the “Pretreat (100 μM): percentage Colony Forming Units (CFU's) per biofilm” value in assay [1] (setting [3]) turned out to be 9.353 percentage. The “Combin. (100 μM): percentage Colony Forming Units (CFU's) per biofilm” value in assay [2] (setting [4]) is on record as 16.57 percentage.
`CC(=O)NC[C@H]1OC[C@@](O)(CNC(=O)c2ccccc2)[C@@H]1O` [compound 225, N-(((3S,4R,5R)-5-(acetamidomethyl)-3,4-dihydroxytetrahydrofuran-3-yl)methyl)benzamide]: the “Pretreat (100 μM): percentage Colony Forming Units (CFU's) per biofilm” value in assay [1] (setting [3]) is 23.96 percentage. Besides, the “Combin. (100 μM): percentage Colony Forming Units (CFU's) per biofilm” value in assay [2] (setting [4]) was 27.38 percentage.
Turning to `O=C(NC[C@]1(O)CO[C@H](CNC(=O)c2ccccc2Cl)[C@H]1O)c1cccc(C(F)(F)F)c1` [compound 242, 2-chloro-N-(((2R,3R,4S)-3,4-dihydroxy-4-((3-(trifluoromethyl)benzamido)methyl)tetrahydrofuran-2-yl)methyl)benzamide], the “Pretreat. (25 μM): percentage Colony Forming Units (CFU's) per biofilm” value in assay [1] (compound 25 μM during biofilm formation, then VAN 20 μg/ml, compared to the untreated (negative) control) is on record as 117.15 percentage. Further, the “Combin. (25 μM): percentage Colony Forming Units (CFU's) per biofilm” value in assay [2] (compound 25 μM together with VAN 20 μg/ml on mature biofilm, compared to the untreated (negative) control) worked out at 87.14 percentage.
Turning to `O=C(NC[C@]1(O)CO[C@H](CN2C(=O)c3ccccc3C2=O)[C@H]1O)c1ccc(-c2ccccc2)cc1` [compound 254, N-(((3S,4R,5R)-5-((1,3-dioxoisoindolin-2-yl)methyl)-3,4-dihydroxytetrahydrofuran-3-yl)methyl)-[1,1′-biphenyl]-4-carboxamide], the “Pretreat (100 μM): percentage Colony Forming Units (CFU's) per biofilm” value in assay [1] (setting [3]) was determined as 3.52 percentage. The EC50 in assay [1] amounted to 4.79 µM; in assay [2], 57.1 µM. In addition, in assay [2] (setting [4]), the “Combin. (100 μM): percentage Colony Forming Units (CFU's) per biofilm” value was 30.44 percentage.
